Data as given in ChEMBL document CHEMBL3046757, “Design, synthesis, and biological evaluation of novel pyridine acid esters of podophyllotoxin and esters of 4-demethylepipodophyllotoxin” (2007).

Legend:
Format in all cases: functional
[1] = system: A549; test: Growth inhibition of Homo sapiens (human) A549 cells at 10^-5 mol/l after 72 hr by MTT assay; conditions: A549, 72 h, read-out: GI
[2] = system: P388; test: Growth inhibition of Mus musculus (mouse) P388 cells at 10^-5 mol/l after 72 hr by MTT assay; conditions: P388, 72 h, read-out: GI
[3] = system: P388; test: Growth inhibition of Mus musculus (mouse) P388 cells at 10^-8 mol/l after 72 hr by MTT assay; conditions: P388, 72 h, read-out: GI
[4] = system: P388; test: Growth inhibition of Mus musculus (mouse) P388 cells at 10^-4 mol/l after 72 hr by MTT assay; conditions: P388, 72 h, read-out: GI
[5] = system: A549; test: Growth inhibition of Homo sapiens (human) A549 cells at 10^-4 mol/l after 72 hr by MTT assay; conditions: A549, 72 h, read-out: GI
[6] = system: P388; test: Growth inhibition of Mus musculus (mouse) P388 cells at 10^-6 mol/l after 72 hr by MTT assay; conditions: P388, 72 h, read-out: GI
[7] = system: P388; test: Growth inhibition of Mus musculus (mouse) P388 cells at 10^-7 mol/l after 72 hr by MTT assay; conditions: P388, 72 h, read-out: GI
[8] = system: A549; test: Growth inhibition of Homo sapiens (human) A549 cells at 10^-7 mol/l after 72 hr by MTT assay; conditions: A549, 72 h, read-out: GI
[9] = system: A549; test: Growth inhibition of Homo sapiens (human) A549 cells at 10^-8 mol/l after 72 hr by MTT assay; conditions: A549, 72 h, read-out: GI
[10] = system: A549; test: Growth inhibition of Homo sapiens (human) A549 cells at 10^-6 mol/l after 72 hr by MTT assay; conditions: A549, 72 h, read-out: GI

Compound	inhibition of growth at 10 µM [1] [%]	inhibition of growth at 10 µM [2] [%]	inhibition of growth at 0.01 µM [3] [%]	inhibition of growth at 100 µM [4] [%]	inhibition of growth at 100 µM [5] [%]	inhibition of growth at 1 µM [6] [%]	inhibition of growth at 0.1 µM [7] [%]	inhibition of growth at 0.1 µM [8] [%]	inhibition of growth at 0.01 µM [9] [%]	inhibition of growth at 1 µM [10] [%]
COc1cc([C@@H]2c3cc4c(cc3[C@@H](OC(=O)c3cccnc3Cl)[C@H]3COC(=O)[C@H]23)OCO4)cc(OC)c1O [4-O-DEMETHYLEPIPODOPHYLLOTOXINYL-2'-CHLORONICOTINATE]	78.1	84.7	9.1	100	92.5	72.3	12.8	62.5	56.6	69.8
COc1cc([C@@H]2c3cc4c(cc3[C@@H](OC(=O)c3cncc(Br)c3)[C@H]3COC(=O)[C@H]23)OCO4)cc(OC)c1O [4-O-DEMETHYLEPIPODOPHYLLOTOXINYL-5'-BROMONICOTINATE]	82	87.4	2	100	87.3	66.1	63.5	74.6	71	78.4
COc1cc([C@@H]2c3cc4c(cc3[C@@H](OC(=O)c3ccc(Cl)nc3)[C@H]3COC(=O)[C@H]23)OCO4)cc(OC)c1O [4-O-DEMETHYLEPIPODOPHYLLOTOXINYL-6'-CHLORONICOTINATE]	93.9	81.1	20.2	100	85.4	73.4	28.4	70.7	59.3	72.5
COc1cc([C@@H]2c3cc4c(cc3[C@@H](OC(=O)c3ccncc3)[C@H]3COC(=O)[C@H]23)OCO4)cc(OC)c1O [4-O-DEMETHYLEPIPODOPHYLLOTOXINYL-ISONICOTINATE]	67.8	86.9	19.8	100	95.1	76.5	53.5	66.1	54	66.4
COc1cc([C@@H]2c3cc4c(cc3[C@@H](OC(=O)c3cccnc3)[C@H]3COC(=O)[C@H]23)OCO4)cc(OC)c1O [4-O-DEMETHYLEPIPODOPHYLLOTOXINYL-NICOTINATE]	79.9	87.9	4.4	100	91.4	72.1	71.4	72.6	71.9	74
COc1cc([C@@H]2c3cc4c(cc3[C@@H](OC(=O)c3ccccn3)[C@H]3COC(=O)[C@H]23)OCO4)cc(OC)c1O [4-O-DEMETHYLEPIPODOPHYLLOTOXINYL-PICOLINATE]	78.8	88.6	39.7	100	91.6	73.5	68	56	53.7	73.7
